“And” between values parts separate entries of the source, which are not always exact repeats. Identical values can stand only once.
Experiment: mn = molality of the nth substance listed, in mol/kg
Conditions: 350 kPa, Liquid

O=[N+]([O-])[O-].O=[N+]([O-])[O-].[Mg+2] [magnesium nitrate] + O
mass density [kg/m3]
Conditions	m1 = 0.0228	m1 = 0.0567	m1 = 0.1086	m1 = 0.2145	m1 = 0.3197	m1 = 0.4749	m1 = 0.6211	m1 = 0.811	m1 = 1	m1 = 1.014
278.15 K	1002.6	1006.37	1012.2	1023.83	1035.31	1051.77	1066.82	1086.01	1104.79	1106.04
283.15 K	1002.29	1005.98	1011.77	1023.21	1034.48	1050.8	1065.63	1084.59	1103.2	1104.4
288.15 K	1001.64	1005.28	1011.01	1022.29	1033.42	1049.55	1064.22	1082.99	1101.41	1102.61
298.15 K	999.48	1003.07	1008.68	1019.73	1030.65	1046.49	1060.93	1079.39	1097.46	1098.71
308.15 K	996.42	999.96	1005.49	1016.39	1027.14	1042.74	1056.98	1075.19	1093.03	1094.27
318.15 K	992.59	996.09	1001.54	1012.32	1022.97	1038.38	1052.47	1070.47	1088.14	1089.36
328.15 K	988.06	991.53	996.93	1007.61	1018.17	1033.44	1047.38	1065.25	1082.78	1083.97
338.15 K	982.92	986.36	991.75	1002.35	1012.86	1027.99	1041.88	1059.64	1077.04	1078.2
348.15 K	977.2	980.38	985.71	996.29	1007.11	1022.17	1035.94	1053.67	1071	1071.85
358.15 K	970.99	974.49	979.87	990.4	1000.85	1015.92	1029.76	1047.38	1064.73	1065.89
368.15 K	964.33	967.8	973.17	983.77	994.23	1009.33	1023.17	1040.85	1058.19	1059.34

O=[N+]([O-])[O-].O=[N+]([O-])[O-].[Mn+2] [manganese nitrate] + O
mass density
Conditions	m1 = 0.0248	m1 = 0.0503	m1 = 0.0836	m1 = 0.5132
278.15 K	1003.65 kg/m3	1007.23 kg/m3	1011.97 kg/m3	1069.81 kg/m3 and 1069.71 kg/m3
283.15 K	1003.3 kg/m3	1006.89 kg/m3	1011.53 kg/m3	1068.8 kg/m3 and 1068.6 kg/m3
288.15 K	1002.66 kg/m3	1006.23 kg/m3	1010.8 kg/m3	1067.5 kg/m3 and 1067.36 kg/m3
298.15 K	1000.56 kg/m3	1004.07 kg/m3	1008.54 kg/m3	1064.29 kg/m3 and 1064.16 kg/m3
308.15 K	997.52 kg/m3	1000.98 kg/m3	1005.36 kg/m3	1060.4 kg/m3 and 1060.29 kg/m3
318.15 K	993.61 kg/m3	997.07 kg/m3	1001.42 kg/m3	1055.86 kg/m3 and 1055.72 kg/m3
328.15 K	988.96 kg/m3	992.44 kg/m3	996.79 kg/m3	1050.75 kg/m3 and 1050.71 kg/m3
338.15 K	983.93 kg/m3	987.31 kg/m3	991.63 kg/m3	1045.39 kg/m3 and 1045.24 kg/m3
348.15 K	978.24 kg/m3	981.59 kg/m3	985.88 kg/m3	1039.4 kg/m3 and 1039.32 kg/m3
358.15 K	972 kg/m3	975.36 kg/m3	979.63 kg/m3	1033.07 kg/m3 and 1032.97 kg/m3
368.15 K	965.29 kg/m3	968.63 kg/m3	972.92 kg/m3	1026.26 kg/m3 and 1026.2 kg/m3

O=[N+]([O-])[O-].O=[N+]([O-])[O-].[Sr+2] [strontium nitrate] + O
mass density [kg/m3]
Conditions	m1 = 0.0499	m1 = 0.1006	m1 = 0.2005	m1 = 0.4995	m1 = 0.7992	m1 = 0.9995	m1 = 1.502	m1 = 2.003	m1 = 3.001
278.15 K	1009	1017.14	1034.72	1082.77	1130.52	1158.71	1231.7	1297.55	1414.38
283.15 K	1008.59	1017.1	1033.98	1082.1	1128.88	1157.52	1229.46	1295.12	1411.42
288.15 K	1007.84	1016.26	1032.93	1080.71	1126.92	1155.34	1226.86	1292.1	1407.51
298.15 K	1005.56	1013.81	1030.24	1077.19	1122.76	1150.87	1221.49	1286.04	1400.33
308.15 K	1002.4	1010.56	1026.7	1073.1	1117.95	1146.06	1215.55	1279.41	1393.17
318.15 K	998.47	1006.61	1022.45	1068.41	1112.6	1140.61	1209.17	1272.01	1385.59
328.15 K	993.97	1001.97	1017.66	1063.12	1106.82	1134.72	1201.99	1264.61	1377.87
338.15 K	988.74	996.66	1012.18	1057.26	1100.32	1128.27	1194.55	1256.5	1369.7
348.15 K	983.02	990.85	1006.4	1051.04	1094.06	1121.59	1188.05	1249.78	1361.53
358.15 K	976.66	984.57	999.95	1044.34	1087.19	1114.51	1180.88	1242.32	1353.05
368.15 K	969.9	977.81	993.09	1037.31	1079.94	1107.09	1173.15	1234.38	1344.4

Source: the NIST ThermoML archive (doi:10.1016/j.jct.2006.09.008)
